In the supplement of paper PMC11208160:

Assay: recombinant barcode read abundance after kanamycin selection (control-corrected) (log10(CPM+1)); higher = more efficient recombination; sequences stand for … in AGTGCAGAGAAAATCGGCCAGTTTTCTCTGCCTGCAGTCCGCATGCCGT…AGATTTATGCAGCGGACTGCCTTTCTCCCAAAGTGATAAACCGGACAGTATCATGGACCGGTTTTCCCGGTAATCCGTATTTGCAAGGTTGGTTTCACT; site = the 11-nt target
How it was run: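 Pooled oligos, each joining a target to an IS621 bridge RNA target-binding loop, were cloned and co-electroporated with a donor plasmid into E. coli. Selective plates carried chloramphenicol/ampicillin/kanamycin and 0.1 mM IPTG, while chloramphenicol/ampicillin LB agar served as control, with two replicates of each. Recombination efficiency rests on averaged, control-corrected counts per million of barcodes at recombinant junctions, shown as log10(CPM+1).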
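Further: IS621 recombinase and bridge RNA in Escherichia coli cells.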

Row | Sequence | recombinant barcode read abundance (log10)
1 | CTAGACTCTTGGGTTCTAACCTGTTGCAA (site CTAGACTCTTT) | 2
2 | CTAGACTCTTGGGTTCTAACCTGTTGCTC (site CTAGACTCTAA) | 0.0434
3 | CTAGACTCTTGGGTTCTAACCTGTTGCTC (site CTAGACTCTCA) | 0.0281
4 | CTAGACTCTTGGGTTCTAACCTGTTGCTC (site CTAGACTCTGA) | 2.84
5 | CTAGACTCTTGGGTTCTAACCTGTTGCTC (site CTAGACTCTTA) | 0.275
6 | CTAGACTCTTGGGTTCTAACCTGTTGCTT (site CTAGACTCTAA) | 2.89
7 | CTAGACTCTTGGGTTCTAACCTGTTGCTT (site CTAGACTCTCA) | 0.304
8 | CTAGACTCTTGGGTTCTAACCTGTTGCTT (site CTAGACTCTGA) | 0.0758
9 | CTAGACTCTTGGGTTCTAACCTGTTGCTT (site CTAGACTCTTA) | 0.261
10 | CTAGATGCTTGGGTTCTAACCTGTTGCGA (site AGTTCATCTAT) | 0.0418
11 | CTAGATGCTTGGGTTCTAACCTGTTGCGA (site CTAGATGCTTC) | 1.94
12 | CTAGATTCTTGGGTTCTAACCTGTTGCAT (site ACGATAACTTG) | 0.0921
13 | CTAGATTCTTGGGTTCTAACCTGTTGCAT (site CTAGATTCTAT) | 2.61
14 | CTAGCAACTTGGGTTCTAACCTGTTGCTT (site CTAGCAACTAA) | 0.26
15 | CTAGCAACTTGGGTTCTAACCTGTTGCTT (site CTAGCAGCTAT) | 0.124
16 | CTAGCAGCTTGGGTTCTAACCTGTTGCAT (site CTAGCAACTAA) | 0.197

Row | Sequence | recombinant barcode read abundance (log10)
17 | CTAGCAGCTTGGGTTCTAACCTGTTGCAT (site CTAGCAGCTAT) | 0.434
18 | CTAGCCACTTGGGTTCTAACCTGTTGCTA (site CTAGCCACTTA) | 1.01
19 | CTAGCCACTTGGGTTCTAACCTGTTGCTA (site CTAGCGACTCA) | 0.38
20 | CTAGGAACTTGGGTTCTAACCTGTTGCTA (site AGGTTCCCTCC) | 0.454
21 | CTAGGAACTTGGGTTCTAACCTGTTGCTA (site CTAGGAACTTA) | 0.635
22 | CTAGGAGCTTGGGTTCTAACCTGTTGCTC (site CTAGGAGCTAA) | 0.241
23 | CTAGGAGCTTGGGTTCTAACCTGTTGCTC (site CTAGGAGCTCA) | 0.222
24 | CTAGGAGCTTGGGTTCTAACCTGTTGCTC (site CTAGGAGCTGA) | 0.885
25 | CTAGGAGCTTGGGTTCTAACCTGTTGCTC (site CTAGGAGCTTA) | 0.126
26 | CTAGTGACTTGGGTTCTAACCTGTTGCGA (site CTAGTGACTAC) | 0.0588
27 | CTAGTGACTTGGGTTCTAACCTGTTGCGA (site CTAGTGACTCC) | 0.576
28 | CTAGTGACTTGGGTTCTAACCTGTTGCGA (site CTAGTGACTGC) | 0.0599
29 | CTAGTGACTTGGGTTCTAACCTGTTGCGA (site CTAGTGACTTC) | 1.99
30 | CTAGTGACTTGGGTTCTAACCTGTTGCGG (site CTAGTGACTAC) | 0.0948
31 | CTAGTGACTTGGGTTCTAACCTGTTGCGG (site CTAGTGACTCC) | 1.74
32 | CTAGTGACTTGGGTTCTAACCTGTTGCGG (site CTAGTGACTGC) | 0.141
